Experimental data reported in patent publication US20150306112A1 (National Cheng Kung University, priority 2014, published 2015).

Legend:
C57/BL6 splenocytes = assay: Splenocyte proliferation by MTS assay; type: cell-based, mouse
Procedure: (§1) FIG. 1. […] After the incubation, cell lysates were assessed by immunoblot. […] In the same condition, cell proliferation was evaluated at 24, 48 and 72 h by MTS assay (lower). […] Data are expressed as the mean±SEM (n=4). **P, 0.01; ***P, 0.001 vs. stimulators-treated groups. Similar results were obtained in at least three independent experiments.
Primary mouse splenocytes were cultured in 96-well plates at a density of 4×10^5 cells/well in 10% FBS RPMI 1640 medium and activated with three different stimulators (Con A: 5 μg/mL; PHA: 2.5 μg/mL; Anti-CD3/CD28: 10/1 μg/mL) at 37° C. in 5% CO2/air. […] The cell proliferation was evaluated by MTS assay with a CellTiter kit (Promega, Madison, Wis.).

STAT3 in RAW264.7 cells = assay: Immunoblot of IL-6-induced pSTAT3 in RAW264.7 cells; type: cell-based
Procedure: (§2) FIG. 5. […] Cell proliferation was measured by MTS assay. ***P<0.001, **P<0.01, *P<0.05 when compared with the control group. […] Following incubation, proteins were extracted and assessed by immunoblot analysis. Similar results were obtained in at least three independent experiments.
(§3) Cell lysates were analysed by immunoblotting with primary antibodies against pSTAT1, pSTAT3, IRF-1 and β-actin, followed by the appropriate HRP-linked secondary antibodies. Immunoreactive protein bands were detected using an enhanced chemiluminescence (ECL) kit (Pierce Biotechnology, Rockford, Ill.).

JAK1 and TYK2 = assay: Immunoblot of IFN-α/IFN-β-induced STAT1 and JAK1 phosphorylation in Jurkat cells; type: cell-based, human
Procedure: (§4) FIG. 3. […] Total cell lysates were examined for the indicated proteins by immunoblotting. (B) Jurkat cells were transfected with p-GAS-Luc plasmids. […] Total cell lysates were harvested, and their luciferase activities were determined and normalised to the total protein. […] Total mRNA was prepared, and the mRNA levels of IRF-1 and SOCS-1 were detected by RT-PCR. GAPDH was used as the reference band. […] Total cell lysates were examined for the indicated proteins by immunoblotting. β-actin was used as internal control. […] Total cell lysates were examined for the indicated proteins by immunoblotting. All data are one of three independent experiments with similar results.
(§5) As JAK2/STAT3 signaling has a role in human hepatoma HepG2 cell proliferation, JAK2 activation promotes recruitment to the receptor complex of STAT3 and STAT5 [32], and LMO2 expression.

Jurkat cells = assay: Jurkat cell proliferation by MTS assay and caspase immunoblot; type: cell-based, human
IRF-1 in Jurkat cells = assay: IRF-1 expression by immunoblot in Jurkat cells; type: cell-based, human; conditions: 20 μM, vs vehicle-treated cells
Procedure: as §1
The increase in cleaved pro-caspase-3 and pro-caspase-8 was also observed at the end of the 24 h ZAA-treatment. […] In other words, ZAA was safe in normal cells, but not in rapidly proliferating cells.

[1] = test system: IRF-1 and SOCS-1 transcription; assay: RT-PCR of IRF-1 and SOCS-1 mRNA; type: cell-based, human; conditions: Jurkat and THP-1 cells
Procedure: as §4
Total RNA was extracted using the Trizol reagent according to the manufacturer's instructions. IRF-1, SOCS-1 and glyceraldehyde 3-phosphate GAPDH mRNA expression levels were detected by RT-PCR.

[2] = test system: JAK2, STAT3, STAT5 and LMO2 in HepG2 cells; assay: Immunoblot of JAK2/STAT3/STAT5/LMO2 in HepG2 cells; type: cell-based, human; conditions: 20 μM, 48 h
Procedure: as §4, §5

[3] = test system: interferon-gamma activated sequence (GAS); assay: Reporter assay for GAS transactivation activity; type: cell-based, human; conditions: Jurkat cells, IFN-γ 20 ng/mL, luciferase reporter
Procedure: as §4
The serum-containing medium of logarithmic growth Jurkat cells was replaced with serum-free RPMI, and the cells were transfected with p-GAS-Luc (0.5 μg/mL) plasmids using the Neon Transfection System (Invitrogen). Four hours later, the serum-free medium was replaced with RPMI containing 10% FBS. […] Luciferase reporter activity was measured according to the manufacturer's recommendation.

[4] = test system: IFN-γ secretion of primary mouse splenocytes; assay: IFN-γ secretion analysis by ELISA in splenocytes; type: cell-based; conditions: 24 h, concentration-dependent
Procedure: as §1
Primary mouse splenocytes were plated at 1×10^5 cells/well with 10% FBS RPMI medium in 96-well plates. Four different experimental conditions were tested. […] All experiments were conducted at 37° C. After a total 24 h of incubation, supernatant IFN-γ concentrations were measured by ELISA kit following the manufactures instructions.

JAK2 = assay: Immunoblot of JAK2/STAT phosphorylation in Jurkat and THP-1 cells; type: cell-based, human; conditions: ZAA 3 h, cytokine 30 min
Procedure: as §4
as §3, with “western blot” for “immunoblotting”, “against JAK2, pJAK2, JAK3, pJAK3,” for “against”, “pSTAT5” for “IRF-1”

JAK3 = assay: Immunoblot of IL-2 induced JAK3/STAT5 phosphorylation in Jurkat and THP-1 cells; type: cell-based, human; conditions: ZAA 3 h, cytokine 30 min
Procedure: as §4
as §3, with “western blot” for “immunoblotting”, “against JAK2, pJAK2, JAK3, pJAK3,” for “against”, “pSTAT5” for “IRF-1”

[5] = test system: P-388 murine leukaemia cells; conditions: cited from earlier work
[6] = test system: BALB/c and C57/BL6 splenocytes; assay: Mixed lymphocyte reaction assay; type: cell-based, mouse; conditions: 72 h, MTS
Procedure: as §2
The cell number of total lymphocytes was measured using the CellTiter kit.

pSTAT1 and IRF-1 = assay: Immunoblot of IFN-γ activated pSTAT1 and IRF-1 in Jurkat, THP-1, HMEC-1 and Chang liver cells; type: cell-based, human; conditions: 2 h and 8 h, ZAA pre-treatment
Procedure: FIG. 7. IFN-γ-activated STAT1 and induced IRF-1 protein expression in Jurkat, THP-1, Chang liver and HMEC-1 cells. […] After various time periods, cells were harvested, and total protein extracts were prepared for imunoblot analysis using the indicated antibodies. Similar results were obtained in at least three independent experiments.
as §3

human JAK2 JH1-JH2 = assay: Native PAGE antibody competition, JAK2 JH1-JH2; type: binding; conditions: antibody against JAK2 aa 745-955
human JAK3 JH1-JH2 = biological target: T1, human JAK3 JH1-JH2 (Homo sapiens, UniProt P52333); assay: Native PAGE antibody competition, JAK3 JH1-JH2; type: binding; conditions: antibody against aa 716-967
T1 construct: incubated with human JAK2 JH1-JH2 and JAK3 JH1-JH2 at 37° C. for 3 h; purchased Life Technologies
T1 sequence (P52333 521-1124): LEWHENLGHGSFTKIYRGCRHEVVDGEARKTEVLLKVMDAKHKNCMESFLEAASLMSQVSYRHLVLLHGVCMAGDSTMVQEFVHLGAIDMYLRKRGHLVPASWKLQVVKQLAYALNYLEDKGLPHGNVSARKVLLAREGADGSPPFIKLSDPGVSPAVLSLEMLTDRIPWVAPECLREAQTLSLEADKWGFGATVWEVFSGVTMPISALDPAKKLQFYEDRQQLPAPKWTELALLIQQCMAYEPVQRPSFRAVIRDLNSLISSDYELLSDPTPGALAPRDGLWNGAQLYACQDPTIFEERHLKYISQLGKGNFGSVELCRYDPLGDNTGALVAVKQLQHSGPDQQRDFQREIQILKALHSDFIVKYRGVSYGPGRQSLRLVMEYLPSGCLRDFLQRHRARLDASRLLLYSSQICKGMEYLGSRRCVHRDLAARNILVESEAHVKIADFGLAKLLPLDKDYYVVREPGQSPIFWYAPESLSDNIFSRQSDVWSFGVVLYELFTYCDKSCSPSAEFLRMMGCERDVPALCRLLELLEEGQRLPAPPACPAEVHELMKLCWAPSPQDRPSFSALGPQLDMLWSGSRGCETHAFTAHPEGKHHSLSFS
Procedure: Samples were loaded onto native PAGE gels for electrophoresis, and the levels of free JH1-JH2 domain were measured by immunoblotting.

[7] = test system: Con A-induced liver injury; assay: Con A-induced hepatitis in mice; type: in vivo, C57BL/6 mice
Procedure: FIG. 4. […] (A) Representative microphotographs showing liver and spleen histopathologic changes with hematoxylin-and-eosin-staining (original magnification ×200). (B) The necrosis was analysed with a four-point score: 0, no; 1, 1-20% necrosis; 2, 20-40% necrosis; 3, >40% necrosis. Infiltration of leukocytes was graded on a four-point severity scale: 0, none; 1, little; 2, moderate; 3, mass. (C) Serum ALT and AST activities were measured at 8 h after Con A injection. (D) Serum levels of IFN-γ, IL-6 and IL-4 were measured at 8 h after Con A injection by ELISA. (E) Proteins from liver and spleen tissues of vehicle, ZAA and dexamethasone-treated mice were extracted and subjected to immunoblot. Values are shown as mean±S.E.M. from individual mice (n=10-13 mice/group). ***P<0.001,**P<0.01, *P<0.05 as compared with vehicle-treated mice. Similar results were obtained in at least three independent experiments.
The positive control animals with Con A-induced hepatitis were given the same amount of solvent (0.2% cyclodextrin) i.p., without any drugs. Blood samples were collected from each group for plasma transaminase activities and cytokine expression level determination. Part of the liver and spleen biopsy samples were fixed in 10% formalin, embedded in paraffin for further hematoxylin-eosin staining and the rest of the tissue samples were frozen at −80° C. for further studies.
Liver injury was quantified by determination of alanine aminotransferase (ALT) and aspartate aminotransferase (AST) activities in serum, according to the Reitman-Frankel method.

[8] = test system: STAT1, STAT3 and IRF-1 in splenocytes; assay: Immunoblot of IFN-γ/pSTAT1 and IL-6/pSTAT3 signaling in splenocytes; type: cell-based, mouse
Procedure: as §1, §3

[9] = 20 mg/kg i.p., 8 h after Con A injection

SMILES: C=C(CC[C@@H](C)[C@H]1CC[C@H]2C3=C(C(=O)C[C@]12C)[C@@]1(C)CCC(=O)[C@@H](C)[C@@H]1CC3=O)C(C)C(=O)O (some centres unmarked) [ZAA, Zhankuic acid A]
- stimulator-activated T cell proliferation (C57/BL6 splenocytes; Con-A, PHA or anti-CD3/CD28-induced splenocytes, concentration-dependent): significantly inhibited
- proliferation of splenocytes, ZAA alone (C57/BL6 splenocytes; no stimulator, up to 20 μM): did not affect
- IL-6-induced Tyr705 phosphorylation of STAT3 (STAT3 in RAW264.7 cells): suppress
- JAK1 phosphorylation (JAK1 and TYK2; 20 μM): not suppressed
- IFN-α and IFN-β-induced STAT1 phosphorylation (JAK1 and TYK2; Jurkat cells, via JAK1 and TYK2): could not inhibit
- cleaved pro-caspase-3 and pro-caspase-8 (Jurkat cells; Jurkat, 24 h ZAA-treatment): increase
- Jurkat cell proliferation (Jurkat cells; without or with Con A, MTS): remarkably inhibited
- IRF-1 expression (IRF-1 in Jurkat cells): suppressed
- IFN-γ stimulated IRF-1 and SOCS-1 transcription [1]: significantly prevented
- phosphorylation of JAK2, STAT3 and STAT5, and LMO2 expression [2]: effectively inhibit
- GAS-mediated transactivation [3]: inhibited
- Con-A-induced IFN-γ secretion [4]: reduced
- IFN-γ-induced JAK2/STAT1, IL-6 induced JAK2/STAT1 and JAK2/STAT3, GM-CSF induced JAK2/STAT5 phosphorylation (JAK2): potently inhibited
- IL-2 induced JAK3/STAT5 phosphorylation (JAK3): potently inhibited
- cytotoxic activity [5]: exhibited cytotoxic activity
- cell proliferation in mixed lymphocytes reaction [6]: inhibitory effect
- IFN-γ activated pSTAT1 and IRF-1 (pSTAT1 and IRF-1): suppressed
- anti-JAK2 antibody recognition of native JH1-JH2 domain (human JAK2 JH1-JH2): reduced
- anti-JAK3 antibody recognition of native JH1-JH2 domain (human JAK3 JH1-JH2): reduced
- extent of liver damage (histopathology) ([7]; 20 mg/kg i.p. 1 h prior to Con A, 8 h): markedly reduce
- pathologic grades: necrosis and infiltration of leukocytes ([7]; 20 mg/kg i.p. pre-treatment): significant preventative effects
- hepatitis phenotype by ALT and AST serum levels ([7]; 20 mg/kg i.p., 8 h after Con A): almost completely recovered
- reduction of serum level of IFN-γ [7, 9]: 37%
- reduction of serum level of IL-4 [7, 9]: 38%
- reduction of serum level of IL-6 [7, 9]: 66%
- caspase 3 activity and IRF-1 expression in liver and spleen tissues ([7]; 20 mg/kg pre-treatment, immunoblot): significantly reduced
- IRF-1 (downstream of STAT) ([8]; IFN-γ, concentration-dependent): inhibitory effect
- IL-6-induced Tyr705 phosphorylation of STAT3 ([8]; splenocytes): suppress
- IFN-γ-induced Tyr701 phosphorylation of STAT1 ([8]; splenocytes and Jurkat cells, IFN-γ 30 min): completely inhibit
